For 12 molecules, IC50 results are on record in patent publication US10696648B2, “Inhibitors of indoleamine 2,3-dioxygenase and methods of their use” (BRISTOL-MYERS SQUIBB COMPANY, priority 2016, dated 2020).

For this assay, the target named is T1, human IDO1 (Homo sapiens, UniProt P14902).
T1 construct: expressed in transfected cells
T1 sequence (P14902 whole entry): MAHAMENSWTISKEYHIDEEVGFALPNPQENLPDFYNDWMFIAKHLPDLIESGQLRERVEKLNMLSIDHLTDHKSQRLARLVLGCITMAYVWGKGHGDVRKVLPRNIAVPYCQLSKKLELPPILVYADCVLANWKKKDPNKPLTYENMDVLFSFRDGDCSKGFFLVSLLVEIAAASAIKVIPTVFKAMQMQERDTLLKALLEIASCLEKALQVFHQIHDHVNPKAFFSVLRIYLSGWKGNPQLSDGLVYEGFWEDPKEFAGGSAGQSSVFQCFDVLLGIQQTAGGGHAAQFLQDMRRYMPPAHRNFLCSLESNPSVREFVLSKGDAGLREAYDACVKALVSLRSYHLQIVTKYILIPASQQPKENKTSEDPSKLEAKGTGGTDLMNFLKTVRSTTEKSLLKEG
Kind of assay: HEK293 cells stably expressing human IDO1, IDO inhibition assay (kynurenine, Ehrlich reagent). It counts as cell-based. The note with it: 20 hours incubation, absorbance at 490 nm, read-out: HEK Human IDO-1 Bio Activity (IDO IC50). The protocol: HEK293 cells were transfected with a pCDNA-based mammalian expression vector harboring human IDO1 cDNA (NM 002164.2) by electroporation. They were cultured in medium (DMEM with 10% FBS) containing 1 mg/ml G418 for two weeks. Clones of HEK293 cells that stably expressed human IDO1 protein were selected and expanded for IDO inhibition assay. The human IDO1/HEK293 cells were seeded at 10,000 cells per 50 μL per well with RPMI/phenol red free media contains 10% FBS in a 384-well black wall clear bottom tissue culture plate (Matrix Technologies LLC) 100 nL of certain concentration of compound was then added to each well using ECHO liquid handling systems. The cells were incubated for 20 hours in 37° C. incubator with 5% CO2. The compound treatments were stopped by adding trichloroacetic acid (Sigma-Aldrich) to a final concentration at 0.2%. The cell plate was further incubated at 50° C. for 30 minute. The equal volume supernatant (20 μL) and 0.2% (w/v) Ehrlich reagent (4-dimethylaminobenzaldehyde, Sigma-Aldrich) in glacial acetic acid were mixed in a new clear bottom 384-well plate. This plate was then incubated at room temperature for 30 minute. The absorbance at 490 nm was measured on Envision plate reader. Compound IC50 values were calculated using the counts of 500 nM of a reference standard treatment as one hundred percent inhibition, and counts of no compound but DMSO treatment as zero percent inhibition.
Broadly, the IC50 is the concentration at which inhibition is half-maximal. In the case of `COc1ccc(CN(C(=O)NCc2ccc(F)cc2)C2CCC(c3ccccc3)CC2)cc1` (stereo not drawn) [Example 32, 3-(4-fluorobenzyl)-1-(4-methoxybenzyl)-1-((1r,4r)-4-phenylcyclohexyl)urea], the IC50 was under 10000 nM.

In the case of `COc1ccc(CN(C(=O)N[C@H](C)c2ccc(F)cc2)C2CCC(c3ccccc3)CC2)cc1` (stereo partly drawn) [Example 33, 3-((R)-1-(4-fluorophenyl)ethyl)-1-(4-methoxybenzyl)-1-((1r,4R)-4-phenylcyclohexyl)urea], the IC50 is under 100 nM.

For `C[C@H](NC(=O)N[C@H]1CC[C@H](c2ccnc3ccc(F)cc32)CC1)c1ccc(Cl)cc1` [Example 34, 1-((S)-1-(4-chlorophenyl)ethyl)-3-((1r,4S)-4-(6-fluoroquinolin-4-yl)cyclohexyl)urea], the IC50 is under 1000 nM.

On to `C[C@H](NC(=O)N[C@H]1CC[C@@H](c2ccnc3ccc(F)cc32)CC1)c1ccc(Cl)cc1` [Example 35, 1-((S)-1-(4-chlorophenyl)ethyl)-3-((1s,4R)-4-(6-fluoroquinolin-4-yl)cyclohexyl)urea], for which the IC50 is under 1000 nM.

Turning to `C[C@H](NC(=O)N(C)[C@H]1CC[C@H](c2ccnc3ccc(F)cc32)CC1)c1ccc(Cl)cc1` [Example 36, 3-((S)-1-(4-chlorophenyl)ethyl)-1-((1r,4S)-4-(6-fluoroquinolin-4-yl)cyclohexyl)-1-methylurea], the IC50 was under 1000 nM.

With `CCN(C(=O)N[C@@H](C)c1ccc(Cl)cc1)[C@H]1CC[C@H](c2ccnc3ccc(F)cc32)CC1` [Example 37, 3-((S)-1-(4-chlorophenyl)ethyl)-1-ethyl-1-((1r,4S)-4-(6-fluoroquinolin-4-yl)cyclohexyl)urea], the IC50 was under 1000 nM.

For the molecule `C[C@H](NC(=O)N(Cc1ccccc1)[C@H]1CC[C@H](c2ccnc3ccc(F)cc32)CC1)c1ccc(Cl)cc1` [Example 39, 1-benzyl-3-((S)-1-(4-chlorophenyl)ethyl)-1-((1r,4S)-4-(6-fluoroquinolin-4-yl)cyclohexyl)urea], the IC50 was under 10000 nM.

As for `C[C@@H](NC(=O)N(Cc1ccccc1)[C@H]1CC[C@H](c2ccnc3ccc(F)cc32)CC1)c1ccc(F)cc1` [Example 40, 1-benzyl-3-((R)-1-(4-fluorophenyl)ethyl)-1-((1r,4R)-4-(6-fluoroquinolin-4-yl)cyclohexyl)urea], the 50% inhibitory concentration (IC50) was under 1000 nM.

For the molecule `C[C@@H](NC(=O)N(Cc1ccc(CC(=O)O)cc1)[C@H]1CC[C@H](c2ccnc3ccc(F)cc32)CC1)c1ccc(F)cc1` [Example 41, 2-(4-((3-((R)-1-(4-fluorophenyl)ethyl)-1-((1 r,4R)-4-(6-fluoroquinolin-4-yl)cyclohexyl)ureido)methyl)phenyl)acetic Acid], the IC50 is under 100 nM.

Regarding `COc1ccc(CN(C(=O)NC2CCCCC2)[C@H]2CC[C@H](c3ccccc3)CC2)cc1` [Example 43, 3-cyclohexyl-1-(4-methoxybenzyl)-1-((1r,4r)-4-phenylcyclohexyl)urea], the IC50 is under 100 nM.

As for `COc1ccc(CN(C(=O)NC2CCCC2)C2CCC(c3ccccc3)CC2)cc1` (stereo not drawn) [Example 44, 3-cyclopentyl-1-(4-methoxybenzyl)-1-((1r,4r)-4-phenylcyclo-hexyl)urea], the IC50 is under 1000 nM.

Turning to `COc1ccc(CN(C(=O)NC2CC2)C2CCC(c3ccccc3)CC2)cc1` (stereo not drawn) [Example 45, 3-cyclopropyl-1-(4-methoxybenzyl)-1-((1r,4r)-4-phenylcyclo-hexyl)urea], the IC50 is under 1000 nM.
